Measurements: patent publication US20250296914A1, “ANTIVIRAL COMPOUNDS AND COMPOSITIONS THEREFROM” (CONSEJO SUPERIOR DE INVESTIGACIONES CIENTÍFICAS, priority 2022, published 2025)
Like-named read-outs stand apart in the source and are kept apart here.

Tested on: SARS-CoV-2 stock strain NL/2020
Test: Protective effect against virus-induced cytopathic effect (crystal violet staining of Vero-E6 monolayer)
Assay type: cell-based
Conditions: Vero-E6, SARS-CoV-2 MOI 0.001, 72 h; for minimal effective concentration / PC MIN (lowest protective concentration): 50 to 0.78 μM tested; for minimal effective concentration: read-out: PC MIN (lowest protective concentration); for EC50: lowest fully protecting concentration averaged with next lower dilution, read-out: ESTIMATED EC50
[1] = Severe acute respiratory syndrome coronavirus 2, Vero C1008, 72 h

| SMILES | minimal effective concentration [1] | EC50 [1] | PC MIN (lowest protective concentration) | EC50 |
| --- | --- | --- | --- | --- |
| CCc1cccc(-c2ccc(NC(C#N)[C@H](Cc3c[nH]c4ccccc34)NC(=O)OC(C)(C)C)c(C(=O)OC)c2)c1 (stereo partly drawn) [(Iaa), methyl 4-(((2S)-2-((tert-butoxycarbonyl)amino)-1-cyano-3-(1H-indol-3-yl)propyl)amino)-3′-ethyl-[1,1′-biphenyl]-3-carboxylate] | 3.12 µM | 2340 nM | – | – |
| COC(=O)c1cc(-c2cccc(N3CCCC3)c2)ccc1NC(C#N)[C@H](Cc1c[nH]c2ccccc12)NC(=O)OC(C)(C)C (stereo partly drawn) [(Iab), methyl 4-(((2S)-2-((tert-butoxycarbonyl)amino)-1-cyano-3-(1H-indol-3-yl)propyl)amino)-3′-(pyrrolidin-1-yl)-[1,1′-biphenyl]-3-carboxylate] | 3.12 µM | 2340 nM | – | – |
| COC(=O)c1cc(-c2cccc(N(C)C)c2)ccc1NC(C#N)[C@H](Cc1c[nH]c2ccccc12)NC(=O)OC(C)(C)C (stereo partly drawn) [(Iac), methyl 4-(((2S)-2-((tert-butoxycarbonyl)amino)-1-cyano-3-(1H-indol-3-yl)propyl)amino)-3′-(dimethylamino)-[1,1′-biphenyl]-3-carboxylate] | 3.12 µM | 2340 nM | – | – |
| COC(=O)c1cc(-c2cccc(OC(F)(F)F)c2)ccc1NC(C#N)[C@H](Cc1c[nH]c2ccccc12)NC(=O)OC(C)(C)C (stereo partly drawn) [(Iad), methyl 4-(((2S)-2-((tert-butoxycarbonyl)amino)-1-cyano-3-(1H-indol-3-yl)propyl)amino)-3′-(trifluoromethoxy)-[1,1′-biphenyl]-3-carboxylate] | 3.12 µM | 2340 nM | – | – |
| COC(=O)c1cc(-c2ccc(N3CCN(C(C)C)CC3)nc2)ccc1NC(C#N)[C@H](Cc1c[nH]c2ccccc12)NC(=O)OC(C)(C)C (stereo partly drawn) [(Iae), methyl 2-(((2S)-2-((tert-butoxycarbonyl)amino)-1-cyano-3-(1H-indol-3-yl)propyl)amino)-5-(6-(4-isopropylpiperazin-1-yl)pyridin-3-yl)benzoate] | 3.12 µM | 2340 nM | – | – |
| CCOc1ncc(-c2ccc(NC(C#N)[C@H](Cc3c[nH]c4ccccc34)NC(=O)OC(C)(C)C)c(C(=O)OC)c2)cn1 (stereo partly drawn) [(Iaf), methyl 2-(((2S)-2-((tert-butoxycarbonyl)amino)-1-cyano-3-(1H-indol-3-yl)propyl)amino)-5-(2-ethoxypyrimidin-5-yl)benzoate] | 3.12 µM | 2340 nM | – | – |
| CCCCc1ccc(-c2ccc(NC(C#N)[C@H](Cc3c[nH]c4ccccc34)NC(=O)OC(C)(C)C)c(C(=O)OC)c2)cc1 (stereo partly drawn) [(Iag), methyl 4-(((2S)-2-((tert-butoxycarbonyl)amino)-1-cyano-3-(1H-indol-3-yl)propyl)amino)-4′-butyl-[1,1′-biphenyl]-3-carboxylate] | – | – | 6.25 µM | 4680 nM |
| COC(=O)c1cc(-c2cccc(Cc3ccccc3)c2)ccc1NC(C#N)[C@H](Cc1c[nH]c2ccccc12)NC(=O)OC(C)(C)C (stereo partly drawn) [(Iah), methyl 3′-benzyl-4-(((2S)-2-((tert-butoxycarbonyl)amino)-1-cyano-3-(1H-indol-3-yl)propyl)-amino)-[1,1′-biphenyl]-3-carboxylate] | 6.25 µM | 4680 nM | – | – |
| CC(C)(C)OC(=O)N[C@@H](Cc1c[nH]c2ccccc12)C(C#N)Nc1ccccc1C(=O)NCc1ccccc1 (stereo partly drawn) [(Iai), 2-(((2S)-2-(tert-butoxycarbonylamino)-1-cyano-3-(1H-indol-3-yl)propyl)amino)-N-benzyl-benzamide] | 6.25 µM | 4690 nM | – | – |
| CC(C)(C)OC(=O)N[C@@H](Cc1c[nH]c2ccccc12)C(C#N)Nc1ccccc1Br (stereo partly drawn) [(Iaj), (3S)-2-((2-bromophenyl)amino)-4-(1H-indol-3-yl)-3-(tert-butoxycarbonylamino) butanenitrile] | 6.25 µM | 4690 nM | – | – |
| COC(=O)c1ccccc1NC(C#N)[C@@H](Cc1c[nH]c2ccccc12)NC(=O)OC(C)(C)C (stereo partly drawn) [(Iak), methyl 2-(((2R)-2-((tert-butoxycarbonyl)amino)-1-cyano-3-(1H-indol-3-yl)propyl)amino)-benzoate] | 12.5 µM | 9370 nM | – | – |
| CC(=O)c1ccccc1NC(C#N)[C@H](Cc1c[nH]c2ccccc12)NC(=O)OC(C)(C)C (stereo partly drawn) [(Ial), (3S)-3-(tert-butoxycarbonylamino)-2-((2-acetylphenyl)amino)-4-(1H-indol-3-yl)butanenitrile] | 12.5 µM | 9370 nM | – | – |
| COC(=O)c1ccc(NC(C#N)[C@H](Cc2c[nH]c3ccccc23)NC(=O)OC(C)(C)C)cc1 (stereo partly drawn) [(Iam), methyl 4-(((2S)-2-((tert-butoxycarbonyl)amino)-1-cyano-3-(1H-indol-3-yl)propyl)amino)-benzoate] | 25 µM | 18800 nM | – | – |
| COC(=O)c1cc(-c2ccc(C(C)(C)C)cc2)ccc1NC(C#N)[C@H](Cc1c[nH]c2ccccc12)NC(=O)OC(C)(C)C (stereo partly drawn) [(Ij), methyl 4-(((2S)-2-((tert-butoxycarbonyl)amino)-1-cyano-3-(1H-indol-3-yl)propyl)amino)-4′-(tert-butyl)-[1,1′-biphenyl]-3-carboxylate] | 1.56 µM | 1170 nM | – | – |
| COC(=O)c1c(Br)cccc1NC(C#N)[C@H](Cc1c[nH]c2ccccc12)NC(=O)OC(C)(C)C (stereo partly drawn) [(Ik), methyl 2-bromo-6-(((2S)-2-((tert-butoxycarbonyl)amino)-1-cyano-3-(1H-indol-3-yl)propyl)-amino)benzoate] | 1.56 µM | 1170 nM | – | – |
| CCc1ccc(-c2ccc(NC(C#N)[C@H](Cc3c[nH]c4ccccc34)NC(=O)OC(C)(C)C)c(C(=O)OC)c2)cc1 (stereo partly drawn) [(Il), methyl 4-(((2S)-2-((tert-butoxycarbonyl)amino)-1-cyano-3-(1H-indol-3-yl)propyl)amino)-4′-ethyl-[1,1′-biphenyl]-3-carboxylate] | 1.56 µM | 1170 nM | – | – |
| COC(=O)c1cc(-c2ccc(C3CC3)cc2)ccc1NC(C#N)[C@H](Cc1c[nH]c2ccccc12)NC(=O)OC(C)(C)C (stereo partly drawn) [(Im1), methyl 4-(((2S)-2-((tert-butoxycarbonyl)amino)-1-cyano-3-(1H-indol-3-yl)propyl)amino)-4′-cyclopropyl-[1,1′-biphenyl]-3-carboxylate] | – | – | 1.56 µM | 1170 nM |
| COC(=O)c1cc(-c2ccc(C3CC3)cc2)ccc1NC(C#N)[C@H](Cc1c[nH]c2ccccc12)NC(=O)OC(C)(C)C (stereo partly drawn) [(Im2), methyl 4-(((2S)-2-((tert-butoxycarbonyl)amino)-1-cyano-3-(1H-indol-3-yl)propyl)amino)-4′-cyclopropyl-[1,1′-biphenyl]-3-carboxylate] | – | – | 1.56 µM | 1170 nM |
| COC(=O)c1cc(-c2ccc(C3CC3)cc2)ccc1NC(C#N)[C@H](Cc1c[nH]c2ccccc12)NC(=O)OC(C)(C)C (stereo partly drawn) [(Im3), methyl 4-(((2S)-2-((tert-butoxycarbonyl)amino)-1-cyano-3-(1H-indol-3-yl)propyl)amino)-4′-(cyclopropyl)-[1,1′-biphenyl]-3-carboxylate] | – | – | 3.12 µM | 2340 nM |
| COC(=O)c1cc(-c2ccc(C3CC3)cc2)ccc1NC(C#N)[C@H](Cc1c[nH]c2ccccc12)NC(=O)OC(C)(C)C (stereo partly drawn) [(Im4), methyl 4-(((2S)-2-((tert-butoxycarbonyl)amino)-1-cyano-3-(1H-indol-3-yl)propyl)amino)-4′-cyclopropyl-[1,1′-biphenyl]-3-carboxylate] | – | – | 6.25 µM | 4690 nM |
| COC(=O)c1cc(-c2ccc(N3CCN(C)CC3)cc2)ccc1NC(C#N)[C@H](Cc1c[nH]c2ccccc12)NC(=O)OC(C)(C)C (stereo partly drawn) [(In), methyl 4-(((2S)-2-((tert-butoxycarbonyl)amino)-1-cyano-3-(1H-indol-3-yl)propyl)amino)-4′-(4-methylpiperazin-1-yl)-[1,1′-biphenyl]-3-carboxylate] | 1.56 µM | 1170 nM | – | – |
| COC(=O)c1cc(-c2ccc(C)nc2)ccc1NC(C#N)[C@H](Cc1c[nH]c2ccccc12)NC(=O)OC(C)(C)C (stereo partly drawn) [(Ir), methyl 2-(((2S)-2-((tert-butoxycarbonyl)amino)-1-cyano-3-(1H-indol-3-yl)propyl)amino)-5-(6-methylpyridin-3-yl)benzoate] | 1.56 µM | 1170 nM | – | – |
| COC(=O)c1cc(-c2ccc(OC)nc2)ccc1NC(C#N)[C@H](Cc1c[nH]c2ccccc12)NC(=O)OC(C)(C)C (stereo partly drawn) [(It), methyl 2-(((2S)-2-((tert-butoxycarbonyl)amino)-1-cyano-3-(1H-indol-3-yl)propyl)amino)-5-(6-methoxypyridin-3-yl)benzoate] | 1.56 µM | 1170 nM | – | – |
| COC(=O)c1ccccc1NC(C#N)[C@H](Cc1c[nH]c2ccccc12)NC(=O)OC(C)(C)C (stereo partly drawn) [(Iu), methyl 2-(((2S)-2-((tert-butoxycarbonyl)amino)-1-cyano-3-(1H-indol-3-yl)propyl)amino)benzoate] | 3.12 µM | 2340 nM | – | – |
| CC(C)(C)OC(=O)N[C@@H](Cc1c[nH]c2ccccc12)C(C#N)Nc1ccccc1C(=O)OC(C)(C)C (stereo partly drawn) [(Iv), tert-Butyl 2-(((2S)-2-((tert-butoxycarbonyl)amino)-1-cyano-3-(1H-indol-3-yl)propyl)amino)-benzoate] | 3.12 µM | 2340 nM | – | – |
| CCCCc1ccc(-c2ccc(NC(C#N)[C@H](Cc3c[nH]c4ccccc34)NC(=O)OC(C)(C)C)c(C(=O)OC)c2)cc1 (stereo partly drawn) [(Iw), methyl 4-(((2S)-2-((tert-butoxycarbonyl)amino)-1-cyano-3-(1H-indol-3-yl)propyl)amino)-4′-butyl-[1,1′-biphenyl]-3-carboxylate] | – | 2340 nM | 3.12 µM | – |
